Paper PMC11440035, “Interaction of myricetin, ampelopsin (dihydromyricetin), and their sulfate metabolites with serum albumin, cytochrome P450 (CYP2C9, 2C19, and 3A4) enzymes, and organic anion‐transporting polypeptides (OATP1B1 and OATP2B1)” (Pharmacology Research & Perspectives, 2024)
Where two headings read alike, the source gives them in different places. Each block holds one compound with its values, some of them ahead of it.

What was measured:
[1] = system: T1, human serum albumin (HSA); test: Fluorescence quenching of HSA by flavonoids (Stern–Volmer and modified Stern–Volmer); format: binding; details: for albumin‐bound fraction: estimated from K, 1:1 stoichiometry, 1 μM flavonoid, 600 μM HSA (≈ 40 g/L)
T1 construct: purchased Merck (Darmstadt, Germany) A1653
Description: Fluorescence spectroscopic measurements were performed in phosphate‐buffered saline (PBS, pH 7.4) at room temperature, using a Hitachi F‐4500 spectrofluorometer (Tokyo, Japan). Increasing amounts of flavonoids (final concentrations: 0, 1, 2, 3, 4, 5, and 6 μM) were added to HSA (2 μM), after which fluorescence emission spectra were collected (λ ex = 295 nm). UV–Vis spectra of MYR, M3′S, AMP, and A4′S were also recorded, and their inner‐filter effects were corrected as it has been reported.[37], [38] Flavonoid–HSA interactions were evaluated based on the graphical application of the Stern–Volmer equation[18], [39]: (1) I0/I=1+KSV×Q where K SV is the Stern–Volmer quenching constant, I 0 denotes the emission intensity of HSA alone at 340 nm, I marks the emission signal of albumin at 340 nm in the presence of flavonoids, while [Q] is the molar concentration of the quencher. Thereafter, binding constants (K) of the formed complexes were determined based on the modified Stern–Volmer equation[39], [40]: (2) I0/I0−I=1/fa×K×1/Q+1/fa where f a is the fraction of the accessible fluorophore.
Using the binding/association constants and assuming 1:1 stoichiometry of complex formation, we estimated the bound fractions of M3′S and A4′S in the circulation based on the following equation[41]: (3) K=FH/F×HSA where [F], [HSA], and [FH] are the molar concentrations of the unbound free flavonoid, the unbound free HSA, and the flavonoid–HSA complex, respectively. In these calculations, we hypothesized the presence of 1.0 μM levels of M3′S or A4′S in the presence of 600 μM (≈ 40 g/L) of HSA.

[2] = system: T1, human serum albumin (HSA); test: Ultrafiltration: displacement of the Site I marker warfarin from HSA; format: binding; details: flavonoid 20 μM, warfarin 1 μM, HSA 5 μM, PBS pH 7.4
Description: The impacts of MYR, M3′S, AMP, and A4′S on the albumin‐bound fraction of the Site I marker warfarin were examined with the previously reported ultrafiltration method.[17], [18] Briefly, samples contained warfarin (1 μM) and HSA (5 μM) without or with flavonoids (20 μM) in PBS (pH 7.4). After two washing steps of the filters (Amicon Ultra‐0.5 Centrifugal Filter Units, 30 kDa molecular weight cut‐off; Merck, Darmstadt, Germany) with water then PBS (both 500 μL), samples (500 μL) were centrifuged for 10 min (7500 g, 25°C, fixed angle rotor).
Warfarin was quantified using an HPLC system (Jasco, Tokyo, Japan) with an autosampler (AS‐4050), a binary pump (PU‐4180), a fluorescence detector (Jasco FP‐920), and the ChromNAV2 software. The concentrations of warfarin in the filtrate were directly determined by applying the previously described method.[17], [18] […] The fluorescence detection of warfarin was carried out at 310 and 390 nm excitation and emission wavelengths, respectively.

CYP2C19 = system: T2, CYP2C19; test: CYP2C19 assay ((S)‐mephenytoin hydroxylation), CypExpress human kit; format: biochemical; details: probe (S)‐mephenytoin, 20 μM flavonoid, 5 μM substrate, read-out: inhibitory action on CYP2C19‐mediated (S)‐mephenytoin hydroxylation
T2 construct: purchased Merck (Darmstadt, Germany)
Description: The isocratic elution was carried out with sodium acetate buffer (6.9 mM, pH 4) and acetonitrile (72:28 v/v%) as the mobile phase. (S)‐Mephenytoin and 4‐hydroxymephenytoin were detected at 230 nm.

[3] = parameters: method as in PMID 26032587; details: double‐blind randomized controlled clinical trial; cited from earlier work
[4] = cited from earlier work
OATP2B1 = system: OATP2B1; parameters: method as in PMID 37252098, PMID 28745105; details: cited from earlier work
OATP1B1 = details: cited from earlier work
[5] = cited from earlier work; remark: listed apart in the source

- albumin‐bound fraction [1]: ~94%
- effect on the filtered fraction of warfarin [2]: not affected
SMILES: O=C1c2c(O)cc(O)cc2OC(c2cc(O)c(OS(=O)(=O)O)c(O)c2)C1O (stereo not drawn) [A4′S, ampelopsin‐4′‐O‐sulfate]

- binding constant (K) of flavonoid–HSA complex ([1]; modified Stern–Volmer equation, HSA 2 μM, flavonoid 0–6 μM, PBS pH 7.4, λex 295 nm, λem 340 nm): 5.5 × 10^4 L/mol and ≈ 10^4 L/mol
- effect on the filtered fraction of warfarin [2]: not affected
- inhibition at 20 μM (CYP2C19): 5%
SMILES: O=C1c2c(O)cc(O)cc2O[C@H](c2cc(O)c(O)c(O)c2)[C@H]1O [AMP, ampelopsin]
- effect in patients with nonalcoholic fatty liver disease [3]: improved glucose and lipid metabolism
- oral bioavailability ([4]; AMP, rat studies): approximately 4%
- peak plasma concentrations of the aglycone ([4]; rats, peroral 100 mg/kg AMP): 300 to 500 nM

- albumin‐bound fraction [1]: exceeds 99%
- effect on the filtered fraction of warfarin [2]: moderate increases
SMILES: O=c1c(O)c(-c2cc(O)c(O)c(OS(=O)(=O)O)c2)oc2cc(O)cc(O)c12 [M3′S, myricetin‐3′‐O‐sulfate]

SMILES: O=c1c(O)c(-c2cc(O)c(O)c(O)c2)oc2cc(O)cc(O)c12 [MYR, myricetin]
- effect on the filtered fraction of warfarin [2]: moderate increases
- inhibitory effects on OATP2B1‐dependent transport of 4′,5′‐dibromofluorescein and estrone 3‐sulfate (OATP2B1): only weak inhibitory effects
- oral bioavailability ([4]; MYR, rats): less than 10%
- peak plasma concentrations of MYR and its (sulfate and glucuronide) metabolites together ([4]; rats, per os 100 mg/kg MYR): 8 µM
- decrease in the OATP1B1‐mediated transport of dehydroepiandrosterone sulfate and fluvastatin (OATP1B1; 50 μM MYR): approximately 35%
- IC50 (OATP1B1; read-out: IC50, OATP1B1, 2′,7′‐dichlorofluorescein uptake): 5.8 µM
- effect on plasma levels of tolbutamide (CYP2C9 substrate) and midazolam (CYP3A4 substrate) ([5]; rat experiment): increased the plasma levels of tolbutamide
- effect of peroral co‐administration on docetaxel pharmacokinetics ([5]; rat study): increased the oral bioavailability and peak plasma concentration of the drug
